{"source": "patent US6300327A", "about": "“Compositions and methods for potentiation of neurotrophin activity” (The University of Southern California, priority 1997, dated 2001)", "molecules": {"B1": {"name": "rhBDNF: recombinant human brain-derived neurotrophic factor (protein, UniProt P23560 19-247, looked up)", "Neurotrophic factor BDNF …": "APMKEANIRGQGGLAYPGVRTHGTLESVNGPKAGSRGLTSLADTFEHVIEELLDEDQKVRPNEENNKDADLYTSRVMLSSQVPLEPPLLFLLEEYKNYLDAANMSMRVRRHSDPARRGELSVCDSISEWVTAADKKTAVDMSGGTVTVLEKVPVSKGQLKQYFYETKCNPMGYTKEGCRGIDKRHWNSQCRTTQSYVRALTMDSKKRIGWRFIRIDTSCVCTLTIKRGR"}}, "key": {"[1]": {"system": "forebrain cholinergic neurons (cultures of rat basal forebrain)", "assay": "ChAT activity in primary cultures of fetal rat basal forebrain (septal) cholinergic neurons treated with neurotrophins and K-252 compounds", "assay_type": "cell-based", "conditions": "for NT-3 potentiation (ChAT, cholinergic neurons): 200 ng/ml NT-3 and increasing concentrations of compound (FIG. 6); for ED50, stimulation of ChAT activity: mean±S.E., n=8", "procedure": "Recombinant human NGF (rhNGF), BDNF (rhBDNF), and NT-3 (rhNT-3) and K-252b were added to primary cultures of fetal rat brain neurons containing either forebrain cholinergic or midbrain dopaminergic neurons. A broad range of concentrations of K-252b were tested in presence of 50 ng/ml rhNGF, 200 ng/ml rhBDNF and 1 μg/ml rhNT-3, growth factor concentrations producing maximal trophic actions on cholinergic neurons. The trophic action was monitored by measuring the activity of ChAT, a parameter reflecting both survival and transmitter-specific differentiation of cholinergic cells.\n(§1) Primary cultures of fetal rat brain septal and mesencephalic cells were prepared in a heretofore known manner [Knusel et al., supra]. Briefly, defined areas were dissected from fetal rat brains (Wistar, E15-16, Charles River, Mass.). The septal area contained the cholinergic neurons from septum, diagonal band of Broca and nucleus basalis. The ventral mesencephalon containing the dopaminergic neurons of the substantia nigra and the ventral tegmental area was dissected and dissociated mechanically. The cells were plated in 16 mm multiwell plates precoated with polyethyleneimine (1 mg/ml, 37° C., overnight), containing 0.5 ml modified L-15 medium supplemented with 5% heat inactivated horse serum and 0.5% heat inactivated fetal calf serum. Modified L-15 was prepared [Knusel et al., \"Selective and Nonselective Stimulation of Central Cholinergic and dopaminergic Development in vitro by Nerve Growth Factor, Basic Fibroblast Growth Factor, Epidermal Growth Factor, Insulin and the Insulin-like Growth Factors I and II,\" J. Neurosci. 10:558-570 (1990)] by adding various amino acids, vitamins, antibiotics, glucose and NaHCO3 to Leibovitz's L-15 medium (Gibco, Grand Island, N.Y.). Plating densities were 4×10^5 cells/cm^2 for basal forebrain cultures and 3×10^5 cells/cm^2 for mesencephalic cultures. Of these cells, 0.5 to 1% were cholinergic or dopaminergic, respectively. Growth factors were typically added on the second day of culture and the cells were grown for 5 or more days. For ChAT assays tissue was homogenized in 250 μl of 50 mM Tris-HCl buffer, pH 6.0 with 0.3% Triton X-100. [1-^14 C]acetylcoenzyme A (NEN) concentration was 20 μM and specific activity 4.09 Ci/mol. To measure dopamine uptake, cultures were preincubated for 5 min at 37° C. with 250 μl incubation solution (5 mM glucose, 1 mM ascorbic acid in PBS) containing 1 mM pargyline. [^3 H]dopamine (37 Ci/mmol) was then added to give a final concentration of 50 nM and the cultures were incubated for another 15 minutes. Blanks were obtained by incubating cells at 0° C.\nFIG. 1 illustrates levels of ChAT activity in cultures of rat basal forebrain treated with rhNGF, rhBDNF, or rhNT- and K-252b. Growth factors were added on the second day of culture and the cells were grown for 5 days. Growth factor concentrations producing maximal elevations of ChAT activity were used. In FIG. 1, .largecircle. represents the control; .quadrature., 50 ng/ml rhNGF; Δ, 200 ng/ml rhBDNF; and .tangle-soliddn., 1 μg/ml rhNT-3. The ChAT stimulation mediated by all three neurotrophins was inhibited by K-252b at concentrations above 200 nM. […] N=4 per data point. Error bars represent SEMs and were omitted where they would have appeared smaller than the symbol.\nThese compounds were accordingly tested for possible NT-3 potentiation at lower concentrations than necessary for NGF inhibition. Culture conditions were as described in Example 1. Cultures were untreated (controls) or treated with 200 ng/ml NT-3 and increasing concentrations of the inhibitors. The findings are shown in FIG. 6, in which \"Stau\", \"K2a\", \"K2b\", \"K57\", \"K58\", \"K59\" represent, respectively, staurosporine, K-252a, K-252b, KT5720, KT5823, and KT5296. […] Staurosporine and KT5296 were ineffective."}, "Cytotoxicity in vitro": {"assay": "Cytotoxicity in vitro", "assay_type": "cell-based"}, "PC12 cells [2]": {"system": "PC12 cells", "conditions": "cited from earlier work"}, "[3]": {"system": "PC12 pheochromocytoma cells", "conditions": "into neuron-like cells; cited from earlier work"}, "[4]": {"system": "phosphorylation of selected proteins", "conditions": "cited from earlier work"}, "[5]": {"system": "midbrain dopaminergic neurons (cultures of ventral mesencephalon)", "assay": "Dopamine uptake in primary cultures of fetal rat ventral mesencephalon", "assay_type": "cell-based", "conditions": "for trophic action on dopaminergic neurons (dopamine uptake): growth factor alone", "procedure": "as §1\nIn Table 1, dopamine uptake is given as fmol/min/culture dish. Cultures were grown in 24-well plates for 7 days in L-15 medium with 5% horse and 0.5% fetal bovine serum and treated with growth factors and K-252b from the second day of culture. rhBDNF, 200 ng/ml; des-IGF-1, 1 μg/ml; n=4; *different from respective control group, p <0.01 (Student's t-test). The apparent difference between control cultures grown in presence and absence of K-252b was statistically not significant. The experiment shown is a representative case of a total of 5 independent experiments."}, "[6]": {"system": "chick dorsal root ganglia neurons (DRG)", "assay": "Survival of dissociated chick DRG neurons (embryonic day 9)", "assay_type": "cell-based", "conditions": "growth factor alone, embryonic day 9 DRG cultures", "procedure": "DRGs of embryonic day 9 chicks were dissected and dissociated using enzymatic and mechanical procedures as described in the literature [Rosenthal, A. et al., \"Primary Structure and Biological Activity of a Novel Human Neurotrophic Factor,\" Neuron 4:767-773 (1990)]. 1800 neurons were plated per well in 96-well tissue culture plates pretreated with polyornithine (500 μg/ml) and laminin (10 μg/ml). Cells were incubated for 48 hrs with or without growth factors and the indicated concentrations of K-252b. Phase-bright cells with elaborated neurites 5× the diameter of the cell bodies were then counted.\nSimilar to the findings obtained in primary cultures of brain cholinergic neurons, low concentration of K-252b (50 nM) potentiated the survival promoting action of a maximally effective concentration of NT-3 (FIG. 3). Survival of dissociated chick DRG neurons in presence of rhNGF (100 ng/ml) or rhNT-3 (100 ng/ml) and K-252b is illustrated in FIG. 3; concentrations on the horizontal axis are for K-252b. The columns represent means +SEMs. […] High concentrations of K-252b (10 μM) inhibited the action of NGF on sensory neurons, as found for cholinergic neurons (FIG. 3)."}, "trk": {"system": "trk", "assay": "trk tyrosine phosphorylation in PC12 cells (immunoprecipitation, anti-phosphotyrosine immunoblot)", "assay_type": "cell-based", "procedure": "To measure the status of trk tyrosine phosphorylation, PC12 cells were lysed and immunoprecipitated with anti-trk serum. The trk proteins were subjected to 7.5% SDS-PAGE and analyzed by immunoblotting with anti-phosphotyrosine antibodies as described in detail in the literature [Kaplan, D. R. et al., \"PDGF beta receptor stimulates tyrosine phosphorylation of GAP and association of GAP with a signaling complex,\" Cell 61:125-133 (1990)]. Tyrosine phosphorylation of cellular proteins was assayed by probing Western blots of lysates of PC12 cells incubated with K-252b and NT-3 or NGF with anti-phosphotyrosine antibodies. Phospholipase C gammal was identified in these blots as described elsewhere [Vetter, M.L. et al., \"Nerve growth factor rapidly stimulates tyrosine phosphorylation of phospholipase C-gammal by a kinase activity associated with the product of trk protooncogene,\" Proc. Natl Acad. Sci. USA 88:5650-5654 (1991)].\n(§2) Experiments on PC12 cells confirmed observations made on primary neuron cultures. Treatment with K-252b stimulated NT-3 induced neurite outgrowth and trk tyrosine phosphorylation in PC12 cells while inhibiting NGF induced effects. PC12 cells were incubated for 48 hours with K-252b (50 nM) and NT-3 or NGF (50 ng/ml). FIG. 4A illustrates the % cells with neurites after 48 hours incubation. Neurites were scored if they were a length of one cell body or more. PC12 cells were subsequently lysed and immunoprecipitated with anti-trk serum. trk proteins were subjected to SDS-PAGE and analyzed by immunoblotting with anti-phosphotyrosine antibodies (FIG. 4B). Lane 1, NT-3 +K-252b; lane 2, NT-3; lane 3, NGF +K-252b; lane 4, NGF. For FIG. 4C, PC12 cells were incubated for 1 hour in K-252b (50 nM or 10 μM) and with NT-3 or NGF for 5 minutes prior to lysis; other methods were the same as described for FIG. 4B. Lane 1, NT-3+10 μM K-252b; lane 2, NT-3±50 nM K-252b; lane 3, NT-3; lane 4, NGF+10 μM K-252b; lane 5, NGF+50 nM K-252b; lane 6, NGF; lane 7, untreated control."}, "PC12 cells [7]": {"system": "PC12 cells", "assay": "Neurite outgrowth of PC12 cells", "assay_type": "cell-based", "conditions": "NT-3 alone", "procedure": "PC12 cells were grown as described earlier [Kaplan et al., 1990, 1991a, b]. To assess effects on neurite outgrowth, cells were incubated for 48 hours with K-252b (50 nM) and NT-3 or NGF (50 ng/ml). Neurites were scored if they were a length of one cell body or more.\nas §2"}}, "data": [{"molecule": "COC(=O)C1(O)CC2OC1(C)n1c3ccccc3c3c4c(c5c6ccccc6n2c5c31)C(=O)NC4", "note": "(stereo not drawn) [K-252a]", "values": [{"measurement": "NT-3 potentiation (ChAT, cholinergic neurons)", "setting": "[1]", "result": "potentiation similar to K-252b"}, {"measurement": "effect on trophic action of NGF on cholinergic neurons (ChAT)", "setting": "[1]; relatively high dosages", "result": "completely and selectively prevent"}, {"measurement": "cytotoxicity", "setting": "Cytotoxicity in vitro", "result": "cytotoxic"}, {"measurement": "effect on binding of 125I-NGF to PC12 cells", "setting": "PC12 cells [2]", "result": "does not interfere"}, {"measurement": "effect on NGF induced morphological transformation of PC12 cells", "setting": "[3]", "result": "prevents"}, {"measurement": "effect on NGF stimulated phosphorylation of selected proteins", "setting": "[4]; NGF stimulated", "result": "inhibits"}, {"measurement": "effect on bFGF or EGF stimulated phosphorylation of selected proteins", "setting": "[4]; bFGF or EGF stimulated", "result": "not"}]}, {"molecule": "CCCCCCOC(=O)C1(O)CC2OC1(C)n1c3ccccc3c3c4c(c5c6ccccc6n2c5c31)C(=O)NC4", "note": "(stereo not drawn) [KT5720]", "values": [{"measurement": "NT-3 potentiation (ChAT, cholinergic neurons)", "setting": "[1]", "result": "potentiation similar to K-252b"}]}, {"molecule": "COC(=O)C1(OC)CC2OC1(C)n1c3ccccc3c3c4c(c5c6ccccc6n2c5c31)C(=O)N(C)C4", "note": "(stereo not drawn) [KT5823]", "values": [{"measurement": "NT-3 potentiation (ChAT, cholinergic neurons)", "setting": "[1]", "result": "potentiation similar to K-252b"}]}, {"molecule": "CN[C@@H]1C[C@H]2O[C@@](C)([C@@H]1OC)n1c3ccccc3c3c4c(c5c6ccccc6n2c5c31)C(=O)NC4", "note": "[staurosporine, reference compound]", "values": [{"measurement": "NT-3 potentiation (ChAT, cholinergic neurons)", "setting": "[1]", "result": "ineffective"}, {"measurement": "selective inhibition of NGF", "setting": "[1]; central cholinergic neurons", "result": "selectively inhibit NGF"}, {"measurement": "cytotoxicity", "setting": "Cytotoxicity in vitro", "result": "cytotoxic"}]}, {"molecule": "NGF: recombinant human nerve growth factor", "values": [{"measurement": "trophic action on dopaminergic neurons (dopamine uptake)", "setting": "[5]", "result": "not"}, {"measurement": "promotion of neuronal survival", "setting": "[6]", "result": "most effective"}, {"measurement": "trk tyrosine phosphorylation by growth factor alone", "setting": "trk; 48 hours", "result": "strongly stimulated"}, {"measurement": "trk tyrosine phosphorylation by growth factor alone", "setting": "trk; acute, 5 minutes", "result": "pronounced increase"}]}, {"molecule": "NT-3: recombinant human neurotrophin-3", "values": [{"measurement": "ED50, stimulation of ChAT activity", "setting": "[1]; NT-3 + 50 nM K-252b", "result": "0.0143 ± 0.0016", "unit": "µg/mL"}, {"measurement": "ED50, stimulation of ChAT activity", "setting": "[1]; NT-3 alone", "result": "0.175 ± 0.0726", "unit": "µg/mL"}, {"measurement": "elevation of ChAT activity relative to the NGF-induced elevation", "setting": "[1]; NT-3 by itself", "result": "approximately 20%"}, {"measurement": "trophic action on dopaminergic neurons (dopamine uptake)", "setting": "[5]", "result": "not"}, {"measurement": "promotion of neuronal survival", "setting": "[6]", "result": "moderate effect"}, {"measurement": "neurite outgrowth induced by growth factor alone", "setting": "PC12 cells [7]", "result": "low levels"}, {"measurement": "trk tyrosine phosphorylation by growth factor alone", "setting": "trk; 48 hours", "result": "no phosphorylation was detectable"}, {"measurement": "trk tyrosine phosphorylation by growth factor alone", "setting": "trk; acute, 5 minutes", "result": "minimal"}]}, {"molecule": "B1", "values": [{"measurement": "Dopamine uptake, % of Control", "setting": "[5]; No K-252b, rhBDNF 200 ng/ml or des-IGF-1 1 μg/ml", "result": 183, "unit": "%"}, {"measurement": "Dopamine uptake, Mean ± SEM", "setting": "[5]; No K-252b, rhBDNF 200 ng/ml or des-IGF-1 1 μg/ml, n=4, 7 days", "result": "28.0 ± 0.3", "unit": "fmol/min/culture dish"}, {"measurement": "trophic action on dopaminergic neurons (dopamine uptake)", "setting": "[5]", "result": "trophically acts"}]}]}
